ChEMBL document CHEMBL1201862, “PubChem BioAssay data set” (2004)
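1) Cells in 96-well plates. 2) Compound, 48 h, 5 concentrations. 3) Linear interpolation between surrounding doses. 4) Unreached endpoint = highest concentration. Here, GI50 denotes the concentration required for 50% inhibition of growth.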 Activity calls are given as the source filed them. Rule as the data show it: active = GI50 up to about 1.1 µM and inactive = higher.

Tests used:
Test in all cases: NCI tumour cell line growth inhibition, 48 h
M14 = test system: M14
NCI-H226 = test system: NCI-H226
LOX IMVI = test system: LOX IMVI
SF-295 = test system: SF-295
Hs-578T = test system: Hs-578T
SF-539 = test system: SF-539
UO-31 = test system: UO-31
NCI-H23 = test system: NCI-H23
OVCAR-8 = test system: OVCAR-8
MDA-MB-231 = test system: MDA-MB-231
A549 = test system: A549
HCT-15 = test system: HCT-15
IGROV-1 = test system: IGROV-1
K562 = test system: K562
UACC-62 = test system: UACC-62
HOP-92 = test system: HOP-92
OVCAR-3 = test system: OVCAR-3
A498 = test system: A498
EKVX = test system: EKVX
SNB-75 = test system: SNB-75
SK-OV-3 = test system: SK-OV-3
HT-29 = test system: HT-29
ACHN = test system: ACHN
SK-MEL-5 = test system: SK-MEL-5
RXF 393 = test system: RXF 393
KM12 = test system: KM12
SW-620 = test system: SW-620
MDA-N = test system: MDA-N
CCRF-CEM = test system: CCRF-CEM
786-0 = test system: 786-0
HCT-116 = test system: HCT-116
HOP-62 = test system: HOP-62
TK-10 = test system: TK-10
NCI-H522 = test system: NCI-H522
NCI-H460 = test system: NCI-H460
SR = test system: SR
U-251 = test system: U-251
MCF7 = test system: MCF7
SF-268 = test system: SF-268
DU-145 = test system: DU-145
CAKI-1 = test system: CAKI-1
UACC-257 = test system: UACC-257
RPMI-8226 = test system: RPMI-8226
HCC 2998 = test system: HCC 2998
SN12C = test system: SN12C
COLO 205 = test system: COLO 205
OVCAR-5 = test system: OVCAR-5
MDA-MB-435 = test system: MDA-MB-435

CC(C)(C)OC(=O)/C=C/C(=O)O/C=C/[N+](=O)[O-]
GI50 (M14): > 100 µM (inactive) | GI50 (NCI-H226): > 100 µM (inactive) | GI50 (LOX IMVI): > 100 µM (inactive) | GI50 (SF-295): > 100 µM (inactive) | GI50 (Hs-578T): > 100 µM (inactive) | GI50 (SF-539): > 100 µM (inactive) | GI50 (UO-31): > 100 µM (inactive) | GI50 (NCI-H23): > 100 µM (inactive) | GI50 (OVCAR-8): > 100 µM (inactive) | GI50 (MDA-MB-231): > 100 µM (inactive) | GI50 (A549): > 100 µM (inactive) | GI50 (HCT-15): > 100 µM | GI50 (IGROV-1): > 100 µM (inactive) | GI50 (K562): 14.4 µM (inactive) | GI50 (UACC-62): > 100 µM (inactive) | GI50 (HOP-92): > 100 µM (inactive) | GI50 (OVCAR-3): > 100 µM (inactive) | GI50 (A498): > 100 µM (inactive) | GI50 (EKVX): > 100 µM (inactive) | GI50 (SNB-75): > 100 µM (inactive) | GI50 (SK-OV-3): > 100 µM (inactive) | GI50 (HT-29): > 100 µM (inactive) | GI50 (ACHN): > 100 µM (inactive) | GI50 (SK-MEL-5): > 100 µM (inactive) | GI50 (RXF 393): > 100 µM (inactive) | GI50 (KM12): > 100 µM (inactive) | GI50 (SW-620): > 100 µM (inactive) | GI50 (MDA-N): > 100 µM (inactive) | GI50 (CCRF-CEM): > 100 µM (inactive) | GI50 (786-0): > 100 µM (inactive) | GI50 (HCT-116): > 100 µM (inactive) | GI50 (HOP-62): > 100 µM (inactive) | GI50 (TK-10): > 100 µM (inactive) | GI50 (NCI-H522): > 100 µM (inactive) | GI50 (NCI-H460): > 100 µM (inactive) | GI50 (SR): 18.2 µM (inactive) | GI50 (U-251): > 100 µM (inactive) | GI50 (MCF7): > 100 µM (inactive) | GI50 (SF-268): > 100 µM (inactive) | GI50 (DU-145): > 100 µM (inactive) | GI50 (CAKI-1): > 100 µM (inactive) | GI50 (UACC-257): > 100 µM (inactive) | GI50 (RPMI-8226): > 100 µM (inactive) | GI50 (HCC 2998): > 100 µM (inactive) | GI50 (SN12C): > 100 µM (inactive) | GI50 (COLO 205): > 100 µM (inactive) | GI50 (OVCAR-5): > 100 µM (inactive) | GI50 (MDA-MB-435): > 100 µM (inactive)
